{"source": "patent US8816085B2", "about": "(Takeda GmbH, priority 2009, dated 2014)"}
{"molecular_target": "T1, PDE5A1 (human PDE5 from platelets) (Homo sapiens, UniProt O76074)", "T1 construct": "from tissue; host or cells: platelets from fresh blood of human donors (10,000 g supernatant of sonified platelets)", "experiment": "Inhibition of type 5 phosphodiesterase (PDE5) activity, modified SPA test", "format": "biochemical", "conditions": "PDE5-containing human platelet lysate, 0.5 μM cGMP, value classes, read-out: PDE5A1 inhibitory values [measured as −logIC50 (mol/l)] (converted)", "protocol": "Method for Measuring Inhibition of the Type 5 Phosphodiesterase (PDE5) Activity:\nAs a source for human PDE5, platelets are used. For that purpose, 150 ml fresh blood from human donors anticoagulated with citrate [final concentration 0.3% (w/v)] is centrifuged at 200 g for 10 min to obtain the so-called platelet-rich-plasma (PRP) as a supernatant. 1/10 volume of ACD solution (85 mM Na3-citrate, 111 mM D-glucose, 71 mM citric acid, pH 4.4) is added to 9/10 volume of PRP. After centrifugation (1,400 g, 10 min) the cell pellet is resuspended in 3 ml homogenization buffer (NaCl 140 mM, KCl 3.8 mM, EGTA (ethylene glycol tetraacetic acid) 1 mM, MgCl2 1 mM, Tris-HCl 20 mM, beta-mercaptoethanol 1 mM, pH 8.2) plus protease-inhibitor mix giving rise to the final concentrations of 0.5 mM Pefablock (Roche), 10 μM Leupeptin, 5 μM Trypsininhibitor, 2 mM Benzamidin and 10 μM Pepstatin A. The suspension is sonified and thereafter centrifuged for 15 min at 10,000 g. The resulting supernatant (platelet lysate) is used for enzymatic testings.\nPDE5A1 activity is inhibited by the compounds of the present subject matter in a modified SPA (scintillation proximity assay) test, supplied by Amersham Biosciences (see procedural instructions “phosphodiesterase [3H]cAMP SPA enzyme assay, code TRKQ 7090”), carried out in 96-well microtitre plates (MTP's). The test volume is 100 μl and contains 20 mM Tris buffer (pH 7.4), 0.1 mg of BSA (bovine serum albumin)/ml, 5 mM Mg^2+, 1 μM motapizone, 10 nM PDE2 inhibitor 2-(3,4-dimethoxybenzyl)-7-[(1R,2R)-2-hydroxy-1-(2-phenylethyl)propyl]-5-methylimidazo[5,1-t][1,2,4]triazin-4(3H)-one, 0.5 μM cGMP (cyclic guanosine monophosphate) (including about 50,000 cpm of [3H]cGMP as a tracer), 1 μl of the respective compound dilution in dimethylsulfoxide (DMSO) and sufficient PDE5-containing platelet lysat (10,000×g supernatant, see above) to ensure that 10-20 wt % of the cGMP is converted under the said experimental conditions. […] After a preincubation of 5 min at 37° C., the reaction is started by adding the substrate (cGMP) and the assay is incubated for a further 15 min; after that, it is stopped by adding SPA beads (50 μl). In accordance with the manufacturer's instructions, the SPA beads had previously been resuspended in water, but are then diluted 1:3 (v/v) in water; the diluted solution also contains 3 mM 8-methoxymethyl-3-isobutyl-1-methylxanthine (IBMX) to ensure a complete PDE activity stop. After the beads have been sedimented (>30 min), the MTP's are analyzed in commercially available luminescence detection devices. The corresponding IC50 values of the compounds for the inhibition of PDE activity are determined from the concentration-effect curves by means of non-linear regression.", "units": {"IC50": "nM"}}
{"smiles": "COCC(=O)N[C@H]1CC[C@H](NC(=O)c2c(C)[nH]c3c(-c4cc(F)ccc4OCC4CC4)ccnc23)CC1", "note": "[Example E24, 7-[2-(Cyclopropylmethoxy)-5-fluorophenyl]-N-{trans-4-[(methoxyacetyl)amino]cyclohexyl}-2-methyl-1H-pyrrolo[3,2-b]pyridine-3-carboxamide]", "IC50": "< 1"}
{"smiles": "COc1cc(OCC2CC2)c(-c2ccnc3c(C(=O)N[C@H]4CC[C@@H](NC(=O)CO)CC4)c(C)[nH]c23)cc1F", "note": "[Example F54, 7-[2-(Cyclopropylmethoxy)-5-fluoro-4-methoxyphenyl]-N-[cis-4-(glycoloylamino)cyclohexyl]-2-methyl-1H-pyrrolo[3,2-b]pyridine-3-carboxamide]", "IC50": "< 1"}
{"smiles": "Cc1[nH]c2c(-c3ccc(F)cc3OCC3CC3)ccnc2c1C(=O)N[C@H]1CC[C@@H](NC(=O)CO)CC1", "note": "[Example F10, 7-[2-(Cyclopropylmethoxy)-4-fluorophenyl]-N-{cis-4-[(hydroxyacetyl)amino]cyclohexyl}-2-methyl-1H-pyrrolo[3,2-b]pyridine-3-carboxamide]", "IC50": "1 to 10"}
{"smiles": "COc1cc(-c2ccnc3c(C(=O)NC4CCN(C(=O)CO)CC4)c(C)[nH]c23)c(OCC2CC2)cc1F", "note": "[Example F40, 7-[2-(Cyclopropylmethoxy)-4-fluoro-5-methoxyphenyl]-N-[1-(hydroxyacetyl)piperidin-4-yl]-2-methyl-1H-pyrrolo[3,2-b]pyridine-3-carboxamide]", "IC50": "< 1"}
{"smiles": "Cc1[nH]c2c(-c3c(OCC4CC4)ccc4c3OCO4)ccnc2c1C(=O)N[C@H]1CC[C@@H](NC(=O)[C@H](C)O)CC1", "note": "[Example F05, 7-[5-(Cyclopropylmethoxy)-1,3-benzodioxol-4-yl]-N-(cis-4-{[(2S)-2-hydroxypropanoyl]amino}cyclohexyl)-2-methyl-1H-pyrrolo[3,2-b]pyridine-3-carboxamide]", "IC50": "< 1"}
{"smiles": "COc1ccc(-c2ccnc3c(C(=O)N[C@H]4CC[C@@H](NC(C)=O)CC4)c(C)[nH]c23)c(OCC2CC2)c1", "note": "[Example E37, N-[cis-4-(Acetylamino)cyclohexyl]-7-[2-(cyclopropylmethoxy)-4-methoxyphenyl]-2-methyl-1H-pyrrolo[3,2-b]pyridine-3-carboxamide]", "IC50": "< 1"}
{"smiles": "Cc1[nH]c2c(-c3c(OCC4CC4)ccc4c3OCO4)ccnc2c1C(=O)N[C@H]1CC[C@@H](NC(=O)CO)CC1", "note": "[Example F04, 7-[5-(Cyclopropylmethoxy)-1,3-benzodioxol-4-yl]-N-[cis-4-(glycoloylamino)cyclohexyl]-2-methyl-1H-pyrrolo[3,2-b]pyridine-3-carboxamide]", "IC50": "< 1"}
{"smiles": "Cc1[nH]c2c(-c3cc(F)ccc3OCC3CC3)ccnc2c1C(=O)N[C@H]1CC[C@@H](NC(=O)[C@H](C)O)CC1", "note": "[Example F17, 7-[2-(Cyclopropylmethoxy)-5-fluorophenyl]-N-(cis-4-{[abs.(2S)-2-hydroxypropanoyl]amino}cyclohexyl)-2-methyl-1H-pyrrolo[3,2-b]pyridine-3-carboxamide]", "IC50": "1 to 10"}
{"smiles": "COc1ccc(OCC2CC2)c(-c2ccnc3c(C(=O)NC4CCN(C(C)=O)CC4)c(C)[nH]c23)c1", "note": "[Example E40, N-(1-Acetylpiperidin-4-yl)-7-[2-(cyclopropylmethoxy)-5-methoxyphenyl]-2-methyl-1H-pyrrolo[3,2-b]pyridine-3-carboxamide]", "IC50": "< 1"}
{"smiles": "CC(=O)N1CC[C@@H](NC(=O)c2c(C)[nH]c3c(-c4cc(F)ccc4OCC4CC4)ccnc23)[C@H](O)C1", "note": "(relative stereo) [Example E28, N-[(3R*,4R*)-1-Acetyl-3-hydroxypiperidin-4-yl]-7-[2-(cyclopropylmethoxy)-5-fluorophenyl]-2-methyl-1H-pyrrolo[3,2-b]pyridine-3-carboxamide]", "IC50": "1 to 10"}
{"smiles": "COc1cc(OCC2CC2)c(-c2ccnc3c(C(=O)NC4CCN(C(=O)CO)CC4)c(C)[nH]c23)cc1F", "note": "[Example F50, 7-[2-(Cyclopropylmethoxy)-5-fluoro-4-methoxyphenyl]-N-(1-glycoloylpiperidin-4-yl)-2-methyl-1H-pyrrolo[3,2-b]pyridine-3-carboxamide]", "IC50": "< 1"}
{"smiles": "CC(=O)N[C@H]1CC[C@H](NC(=O)c2c(C)[nH]c3c(-c4cc(C)ccc4OCC4CC4)ccnc23)CC1", "note": "[Example E55, N-[trans-4-(Acetylamino)cyclohexyl]-7-[2-(cyclopropylmethoxy)-5-methylphenyl]-2-methyl-1H-pyrrolo[3,2-b]pyridine-3-carboxamide]", "IC50": "1 to 10"}
{"smiles": "COc1ccc(OCC2CC2)c(-c2ccnc3c(C(=O)NC4CCN(C(=O)[C@H](C)O)CC4)c(C)[nH]c23)c1", "note": "[Example F27, 7-[2-(Cyclopropylmethoxy)-5-methoxyphenyl]-N-{1-[(2S)-2-hydroxypropanoyl]piperidin-4-yl}-2-methyl-1H-pyrrolo[3,2-b]pyridine-3-carboxamide]", "IC50": "< 1"}
{"smiles": "Cc1[nH]c2c(-c3cc(F)ccc3OCC3CC3)ccnc2c1C(=O)N[C@@H]1CCN(C(=O)CO)C[C@H]1O", "note": "(relative stereo) [Example F18, 7-[2-(Cyclopropylmethoxy)-5-fluorophenyl]-N-[rel.(3R,4R)-3-hydroxy-1-(hydroxyacetyl)piperidin-4-yl]-2-methyl-1H-pyrrolo[3,2-b]pyridine-3-carboxamide]", "IC50": "1 to 10"}
{"smiles": "COc1cc(-c2ccnc3c(C(=O)N[C@@H]4CCN(C(=O)CO)C[C@H]4O)c(C)[nH]c23)c(OCC2CC2)cc1F", "note": "(relative stereo) [Example F48, 7-[2-(Cyclopropylmethoxy)-4-fluoro-5-methoxyphenyl]-N-[(3R*,4R*)-3-hydroxy-1-(hydroxyacetyl)piperidin-4-yl]-2-methyl-1H-pyrrolo[3,2-b]pyridine-3-carboxamide]", "IC50": "< 1"}
{"smiles": "COc1ccc(OCC2CC2)c(-c2ccnc3c(C(=O)N[C@H]4CC[C@@H](NC(=O)[C@H](C)O)CC4)c(C)[nH]c23)c1", "note": "[Example F31, 7-[2-(Cyclopropylmethoxy)-5-methoxyphenyl]-N-(cis-4-{[(2S)-2-hydroxypropanoyl]amino}cyclohexyl)-2-methyl-1H-pyrrolo[3,2-b]pyridine-3-carboxamide]", "IC50": "< 1"}
{"smiles": "CCC(=O)N[C@H]1CC[C@H](NC(=O)c2c(C)[nH]c3c(-c4cc(F)ccc4OCC4CC4)ccnc23)CC1", "note": "[Example E23, 7-[2-(Cyclopropylmethoxy)-5-fluorophenyl]-2-methyl-N-[trans-4-(propanoylamino)cyclohexyl]-1H-pyrrolo[3,2-b]pyridine-3-carboxamide]", "IC50": "< 1"}
{"smiles": "CC(=O)N[C@H]1CC[C@@H](NC(=O)c2c(C)[nH]c3c(-c4c(OCC5CC5)ccc5c4OCO5)ccnc23)CC1", "note": "[Example E06, N-(cis-4-acetamidocyclohexyl)-7-[5-(cyclopropylmethoxy)-1,3-benzodioxol-4-yl]-2-methyl-1H-pyrrolo[3,2-b]pyridine-3-carboxamide]", "IC50": "< 1"}
{"smiles": "COCC(=O)N[C@H]1CC[C@@H](NC(=O)c2c(C)[nH]c3c(-c4cc(C)ccc4OCC4CC4)ccnc23)CC1", "note": "[Example E60, 7-[2-(Cyclopropylmethoxy)-5-methylphenyl]-N-{cis-4-[(methoxyacetyl)amino]cyclohexyl}-2-methyl-1H-pyrrolo[3,2-b]pyridine-3-carboxamide]", "IC50": "1 to 10"}
{"smiles": "COc1cc(OCC2CC2)c(-c2ccnc3c(C(=O)N[C@H]4CC[C@H](NC(=O)[C@H](C)O)CC4)c(C)[nH]c23)cc1F", "note": "[Example F53, 7-[2-(Cyclopropylmethoxy)-5-fluoro-4-methoxyphenyl]-N-(trans-4-{[(2S)-2-hydroxypropanoyl]amino}cyclohexyl)-2-methyl-1H-pyrrolo[3,2-b]pyridine-3-carboxamide]", "IC50": "< 1"}
{"smiles": "COc1cc(OCC2CC2)c(-c2ccnc3c(C(=O)N[C@H]4CC[C@H](NC(C)=O)CC4)c(C)[nH]c23)cc1F", "note": "[Example E79, N-(trans-4-Acetamidocyclohexyl)-7-[2-(cyclopropylmethoxy)-5-fluoro-4-methoxyphenyl]-2-methyl-1H-pyrrolo[3,2-b]pyridine-3-carboxamide]", "IC50": "< 1"}
{"smiles": "CC(=O)N[C@H]1CC[C@H](NC(=O)c2c(C)[nH]c3c(-c4c(OCC5CC5)ccc5c4OCO5)ccnc23)CC1", "note": "[Example E05, N-(trans-4-Acetamidocyclohexyl)-7-[5-(cyclopropylmethoxy)-1,3-benzodioxol-4-yl]-2-methyl-1H-pyrrolo[3,2-b]pyridine-3-carboxamide]", "IC50": "< 1"}
